Key:
[1] = Size, zeta potential, % EE of singly or dually loaded PLA72K-PEG-PPG-PEG12.5K NPs; assay type: physicochemical
Protocol: PTX loaded nanoparticles were produced using an emulsion-solvent evaporation method. Briefly, 50 mg of copolymer in 5 ml acetonitrile (ACN) and 5 mg of PTX (LC Laboratories, Boston, Mass., US) were dissolved in 100 ul ACN and added to 50 mg of PLA-PEG-PPG-PEG solution in 5 ml ACN. The resulting mixture was then added into a 20 ml aqueous phase composed of F127 in distilled water and stirred at room temperature for 6 to 8 hours to facilitate solvent evaporation and nanoparticle stabilization. PTX and NuBCP-9 peptide loaded PLA-PEG-PPG-PEG (50 mg) nanoparticles were prepared by double emulsion process. Paclitaxel was added into the dissolved PLA-PEG-PPG-PEG copolymer followed by immediate addition of peptide with a slight sonication. […]
Nanoparticles were filtered through an Amikon 30-kDa ultrafilter (Millipore, USA) and washed twice with MQ water to remove free drug/dye. […] The filtrate was collected and analyzed for free NuBCP-9 peptide by a Micro-BCA Kit (Pierce Chemicals, USA) and measured on EPOCH microplate reader (BioTek, US) at 590 nm. Similarly, free paclitaxel was measured through high performance liquid chromatography HPLC (Perkin Elmer, US) assay method, using C18 column with acetonitrile, Water, Methanol (60:35:5 volume ratio) as mobile phase. Encapsulation efficiency (EE %) of NuBCP-9 peptide/PTX was determined using the following formula:

[2] = Isoelectric point of peptide; assay type: physicochemical
MCF-7/PTX-R cells = test: Apoptosis in PTX-resistant cells (Annexin V/PI, FLOW, caspase-3 and PARP cleavage); assay type: cell-based, Human; settings: 100 nM, 48 h
Protocol: Cells were then stained with Annexin V/PI and analyzed by FACS. […] (see Example 9).
Analysis was performed by immunoblotting with anti-caspase-3 CF, anti-PARP CF and anti-β-Actin antibodies (see Example 9).
(§1) Accordingly, MCF-7 cells resistant to PTX were generated by exposure to increasing PTX concentrations (Table 9).

MCF-7/PTX-R = test: IC50 in PTX-resistant MCF-7 cells (Example 9); assay type: cell-based; settings: Homo sapiens, MCF7
Text: as §1

Ehrlich tumor = test: Antitumor activity in syngeneic Ehrlich tumor model (Example 8); assay type: in vivo, Balb/c mice; settings: 21 days treatment
Protocol: H. Analysis of antitumor activity: Mice Ehrlich tumor cells were injected subcutaneously in the hind limb of syngeneic Balb/c mice (17-22 g). Tumor bearing mice (˜150 mm^3) were divided into 9 groups (6 mice/group) and treated weekly or biweekly intraperitoneally (i.p.) with different formulations for 21 days. Tumor volume was determined by vernier caliper and calculated using the formula (A×B^2)×0.5, where A and B are the longest and shortest tumor diameters, respectively. From each group, 1 mouse was sacrificed on day 7, 14, and 21 for harvesting of tumor for histopathologal examination. The tumors were fixed in 10% formalin/saline and embedded in paraffin. Five-micrometer sections were stained with hematoxylin and eosin for further immunohistochemistry, TUNNEL and Ki67 assay. Statistical analysis of tumor volumes was performed by one-way ANOVA using Graph pad prism. Survival of the mice was determined by the Kaplan-Meier method using Prism 4.0 software (Graph Pad Software).
The in vivo antitumor efficacy and systemic toxicity of the dual-drug and single drug loaded nanoparticles were evaluated on EAT tumor model Balb/c mice. […]

[3] = system: MCF-7 breast cancer cells; test: In vitro cytotoxicity, XTT cell proliferation assay; assay type: cell-based; settings: Homo sapiens, MCF7, 72 hrs
Protocol: (§2) D. In vitro cytotoxicity analysis: […] The cells were maintained at 37° C. and 5% CO2 atmosphere for the duration of experiments. Exponentially growing cancer cells were plated into a 96-well plate at a seeding density of 3000 cells per well and incubated for 24 hrs.

[4] = system: MDA-MB231 breast cancer cells; test: as above; assay type: cell-based; settings: Homo sapiens, MDA-MB-231, 72 hrs
Protocol: as §2

breast cancer = settings: first-line treatment of locally recurrent or metastatic breast cancer; cited from earlier work

| IC50 (MCF-7/PTX-R) [µM] | EE % of PTX ([1]; encapsulation efficiency) [%] | Compound | EE % of Peptide ([1]; encapsulation efficiency of NuBCP-9) [%] | isoelectric point [2] [pH] | induction of apoptosis (MCF-7/PTX-R cells) | Ki67 expression in tumor tissues (Ehrlich tumor) | IC50 [3] [nM] | IC50 [4] [nM] | progression-free survival (breast cancer) [months] |
| --- | --- | --- | --- | --- | --- | --- | --- | --- | --- |
| – | – | FSRSLHSLL (listed as Homo sapiens) [NuBCP-9] | 64.5 | ~7.2 | – | – | – | – | – |
| 1.75 | 87 | CC(=O)O[C@H]1C(=O)[C@@]2(C)[C@H]([C@H](OC(=O)c3ccccc3)[C@]3(O)C[C@H](OC(=O)[C@H](O)[C@@H](NC(=O)c4ccccc4)c4ccccc4)C(C)=C1C3(C)C)[C@]1(OC(C)=O)CO[C@@H]1C[C@@H]2O [PTX, Paclitaxel] | – | – | not | high | 38 | 46 | 11 |
